Measured values: the supplement of paper PMC10307832

What was measured:
Assay in all cases: relative viability (nuclei count vs DMSO), 5 days (fraction); higher = more cells survive
SW 1573 = tested on: SW 1573
Outline: (§1)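 After 5 days of treatment, lung cancer cells in 1536-well plates were fixed and stained in a single step (final 0.05% Triton X-100, 1% formaldehyde, 1 ug/ml Hoechst) and their nuclei counted on 4× images. Treatment had been applied by pin tool the day after seeding as one drug alone or as a fixed anchor-drug dose with five library-drug doses (not always all listed) in √10 steps. Relative viability is the nuclei count of treated wells divided by that of vehicle wells, and values are medians of duplicate plates.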

NCI-H1355 = tested on: NCI-H1355
Outline: as §1

SK-LU-1 = tested on: SK-LU-1
Outline: as §1

NCI-H1650 = tested on: NCI-H1650
Outline: as §1

UMC-11 = tested on: UMC-11
Outline: as §1

EKVX = tested on: EKVX
Outline: as §1

NCI-H520 = tested on: NCI-H520
Outline: as §1

NCI-H1792 = tested on: NCI-H1792
Outline: as §1

NCI-H2342 = tested on: NCI-H2342
Outline: as §1

EMC-BAC-2 = tested on: EMC-BAC-2
Outline: as §1

NCI-H2009 = tested on: NCI-H2009
Outline: as §1

ABC-1 = tested on: ABC-1
Outline: as §1

NCI-H2085 = tested on: NCI-H2085
Outline: as §1

NCI-H522 = tested on: NCI-H522
Outline: as §1

NCI-H661 = tested on: NCI-H661
Outline: as §1

SK-MES-1 = tested on: SK-MES-1
Outline: as §1

NCI-H2087 = tested on: NCI-H2087
Outline: as §1

BEN = tested on: BEN
Outline: as §1

LC-2-ad = tested on: LC-2-ad
Outline: as §1

NCI-H1734 = tested on: NCI-H1734
Outline: as §1

H3255 = tested on: H3255
Outline: as §1

NCI-H838 = tested on: NCI-H838
Outline: as §1

LU99A = tested on: LU99A
Outline: as §1

NCI-H1993 = tested on: NCI-H1993
Outline: as §1

Nc1cccc2c1CN(C1CCC(=O)NC1=O)C2=O (stereo not given) [Lenalidomide] + Nc1ncn([C@H]2C[C@H](O)[C@@H](CO)O2)c(=O)n1 [Decitabine] (partner 2 µM)
relative viability (SW 1573; first compound 0.253 µM): 0.536
relative viability (SW 1573; first compound 0.8 µM): 0.625
relative viability (SW 1573; first compound 2.53 µM): 0.591
relative viability (SW 1573; first compound 8 µM): 0.542
relative viability (NCI-H1355; first compound 0.253 µM): 0.36
relative viability (NCI-H1355; first compound 0.8 µM): 0.367
relative viability (NCI-H1355; first compound 2.53 µM): 0.376
relative viability (NCI-H1355; first compound 8 µM): 0.341
relative viability (SK-LU-1; first compound 0.253 µM): 0.614
relative viability (SK-LU-1; first compound 0.8 µM): 0.58
relative viability (SK-LU-1; first compound 2.53 µM): 0.72
relative viability (SK-LU-1; first compound 8 µM): 0.603
relative viability (NCI-H1650; first compound 0.253 µM): 0.387
relative viability (NCI-H1650; first compound 0.8 µM): 0.424
relative viability (NCI-H1650; first compound 2.53 µM): 0.419
relative viability (NCI-H1650; first compound 8 µM): 0.479
relative viability (UMC-11; first compound 0.253 µM): 0.46
relative viability (UMC-11; first compound 0.8 µM): 0.688
relative viability (UMC-11; first compound 2.53 µM): 0.725
relative viability (UMC-11; first compound 8 µM): 0.621
relative viability (EKVX; first compound 0.253 µM): 0.326
relative viability (EKVX; first compound 0.8 µM): 0.4
relative viability (EKVX; first compound 2.53 µM): 0.336
relative viability (EKVX; first compound 8 µM): 0.331
relative viability (NCI-H520; first compound 0.253 µM): 0.539
relative viability (NCI-H520; first compound 0.8 µM): 0.548
relative viability (NCI-H520; first compound 2.53 µM): 0.507
relative viability (NCI-H520; first compound 8 µM): 0.438
relative viability (NCI-H1792; first compound 0.253 µM): 0.568
relative viability (NCI-H1792; first compound 0.8 µM): 0.454
relative viability (NCI-H1792; first compound 2.53 µM): 0.541
relative viability (NCI-H1792; first compound 8 µM): 0.384
relative viability (NCI-H2342; first compound 0.253 µM): 0.687
relative viability (NCI-H2342; first compound 0.8 µM): 0.678
relative viability (NCI-H2342; first compound 2.53 µM): 0.624
relative viability (NCI-H2342; first compound 8 µM): 0.699
relative viability (EMC-BAC-2; first compound 0.253 µM): 0.998
relative viability (EMC-BAC-2; first compound 0.8 µM): 0.929
relative viability (EMC-BAC-2; first compound 2.53 µM): 0.995
relative viability (EMC-BAC-2; first compound 8 µM): 0.801
relative viability (NCI-H2009; first compound 0.253 µM): 0.415
relative viability (NCI-H2009; first compound 0.8 µM): 0.387
relative viability (NCI-H2009; first compound 2.53 µM): 0.406
relative viability (NCI-H2009; first compound 8 µM): 0.397
relative viability (ABC-1; first compound 0.253 µM): 0.929
relative viability (ABC-1; first compound 0.8 µM): 1.05
relative viability (ABC-1; first compound 2.53 µM): 0.827
relative viability (ABC-1; first compound 8 µM): 0.939
relative viability (NCI-H2085; first compound 0.253 µM): 0.546
relative viability (NCI-H2085; first compound 0.8 µM): 0.542
relative viability (NCI-H2085; first compound 2.53 µM): 0.529
relative viability (NCI-H2085; first compound 8 µM): 0.566
relative viability (NCI-H522; first compound 0.253 µM): 0.759
relative viability (NCI-H522; first compound 0.8 µM): 0.76
relative viability (NCI-H522; first compound 2.53 µM): 0.694
relative viability (NCI-H522; first compound 8 µM): 0.626
relative viability (NCI-H661; first compound 0.253 µM): 0.568
relative viability (NCI-H661; first compound 0.8 µM): 0.548
relative viability (NCI-H661; first compound 2.53 µM): 0.621
relative viability (NCI-H661; first compound 8 µM): 0.568
relative viability (SK-MES-1; first compound 0.253 µM): 0.362
relative viability (SK-MES-1; first compound 0.8 µM): 0.342
relative viability (SK-MES-1; first compound 2.53 µM): 0.428
relative viability (SK-MES-1; first compound 8 µM): 0.394
relative viability (NCI-H2087; first compound 0.253 µM): 0.31
relative viability (NCI-H2087; first compound 2.53 µM): 0.303
relative viability (NCI-H2087; first compound 8 µM): 0.292
relative viability (BEN; first compound 0.253 µM): 0.728
relative viability (BEN; first compound 0.8 µM): 0.635
relative viability (BEN; first compound 2.53 µM): 0.766
relative viability (BEN; first compound 8 µM): 0.62
relative viability (LC-2-ad; first compound 0.253 µM): 0.685
relative viability (LC-2-ad; first compound 0.8 µM): 0.81
relative viability (LC-2-ad; first compound 2.53 µM): 0.744
relative viability (LC-2-ad; first compound 8 µM): 0.79
relative viability (NCI-H1734; first compound 0.253 µM): 0.508
relative viability (NCI-H1734; first compound 0.8 µM): 0.478
relative viability (NCI-H1734; first compound 2.53 µM): 0.568
relative viability (NCI-H1734; first compound 8 µM): 0.485
relative viability (H3255; first compound 0.253 µM): 0.592
relative viability (H3255; first compound 0.8 µM): 0.556
relative viability (H3255; first compound 2.53 µM): 0.563
relative viability (H3255; first compound 8 µM): 0.421
relative viability (NCI-H838; first compound 0.253 µM): 0.483
relative viability (NCI-H838; first compound 0.8 µM): 0.404
relative viability (NCI-H838; first compound 2.53 µM): 0.527
relative viability (NCI-H838; first compound 8 µM): 0.491
relative viability (LU99A; first compound 0.253 µM): 0.894
relative viability (LU99A; first compound 0.8 µM): 0.823
relative viability (LU99A; first compound 2.53 µM): 0.868
relative viability (LU99A; first compound 8 µM): 0.702
relative viability (NCI-H1993; first compound 0.253 µM): 0.658
relative viability (NCI-H1993; first compound 0.8 µM): 0.588
relative viability (NCI-H1993; first compound 2.53 µM): 0.529
relative viability (NCI-H1993; first compound 8 µM): 0.51
